Measured values published in article PMC8691750, “Euphorbia Factor L2 ameliorates the Progression of K/BxN Serum-Induced Arthritis by Blocking TLR7 Mediated IRAK4/IKKβ/IRF5 and NF-kB Signaling Pathways” (Frontiers in Pharmacology, 2021).

What was measured:
[1] = In vivo pharmacokinetic study, plasma UPLC-MS; design: species or system C57BL/6 mice; details: for Cmax: 40 mg/kg
Method: Prior to the pharmacokinetic study, 12 male C57BL/6 mice were fasted for 12 h with free access to water, and then treated by intraperitoneal injection of EFL2 at a dose of 40 mg/kg. About 50 μL blood samples were collected via the oculi chorioideae vein at 0.5, 1, 2, 4, 8, 12, 24, 72, 96, and 168 h, respectively. After centrifugation at 5,000 rpm for 10 min, plasma samples were obtained and frozen at −80°C until analysis. The pharmacokinetic parameters of EFL2 were calculated using WinNolin 4.0.1 software.
20 μL plasma samples were spiked with 340 μL acetonitrile by vortex mixing for 30 s. The mixture was then centrifuged at 10,000 rpm for 5 min at 4°C to separate the precipitated protein. An aliquot of 50 μL supernatant was transferred to a fresh tube and spiked with 450 μL mobile phase (acetonitrile containing 0.1% formic acid). After centrifugation at 13,000 rpm for 5 min, 3 μL supernatant was injected into Agilent 6,495 Triple Quadrupole LC/MS/MS system for each time. Then, the concentration of EFL2 was determined.
An Agilent 1,200 series UPLC system (Agilent Technologies, Waldbronn, Germany) equipped with an 6,495 quadruple mass spectrometer (Agilent Technologies, Santa Clara, CA, United States) were used for pharmacokinetic study. The separation was carried out with Waters Acquity UPLC BEH C18 column (2.1 × 50 mm, 1.7 μm) at a constant temperature of 30 °C. The mobile phase was composed of aqueous solution (0.1% formic acid, A) and acetonitrile (containing 0.1% formic acid, B) and the program of the mobile phase was as follows: 0 min, 40% B; 1 min, 40% B; 1.5 min, 80% B; 2.5 min, 90% B; 4 min, 90% B; 4.1 min, 40% B; 6 min, 40% B, at a flow rate of 0.3 ml/min. The mass spectra were acquired using a triple quadrupole mass spectrometer with ESI ion source in positive mode. The ionization conditions were as follows: drying gas temperature (N2), 300°C; gas flow, 11 L/min (N2); nebulizer pressure, 35 psi (N2). An Agilent Mass Hunter workstation was used for data processing.

[2] = tested on: neutrophils, macrophages and inflammatory monocytes in the blood; assay: Flow cytometry of myeloid cells in peripheral blood of STA mice; assay type: in vivo, C57BL/6 mice; details: EFL2 40 mg/kg i.p.
Method: K/BxN serum was collected from K/BxN mice at 8 weeks of age, pooled, aliquoted and stored at -20 °C. K/BxN serum-transfer arthritis (STA) model was induced by intraperitoneal (i.p.) application of 150 μL of serum at day 0. Clinical score for arthritis severity was assessed using a 0–4 point scale for each paw at various time points (0–16 total score) as described previously ([Luo et al., 2011]). 8-week old male C57BL/6 mice were purchased from Dashuo Animal Center (China, Chengdu), maintained at 25°C, and exposed to 12-h light and dark cycles. Mice were fed with standard laboratory chow and water with 1 week of acclimatization. Naive mice were used as the control group. […]
150 μL peripheral blood and the hind ankles were collected on day 5 and 13 post KBx/N serum transfer, respectively. […] Data were acquired using a BD FACSCalibur flow cytometer (BD Biosciences) and were analyzed by using FlowJo software (Version 7.6.1).

[3] = tested on: lung cancer cell line A549; design: method as in Lin et al., 2017; details: in vitro, dose-dependent; ref Lin et al., 2017; cited from earlier work
[4] = male, C57BL/6, mouse, ip, mice, 40 mg/kg intraperitoneal injection, plasma

In the case of `C=C1C(OC(=O)c2ccccc2)CC2C(C=C(C)C(=O)C3(OC(C)=O)CC(C)C(OC(=O)c4ccccc4)C3C1OC(C)=O)C2(C)C` (centres unmarked) [EFL2, Euphorbia factor L2], the “peak concentration in sera” value ([1]; based on Cmax and molecular weight (MW = 642.6)) is reported as 7.03 µM, the AUC(0-inf) [1, 4] is reported as 379 ± 166 µg·h/mL and the AUC(0-t) [1, 4] is reported as 374 ± 164 µg·h/mL. It also gave a Tmax [1, 4] of 2.5 ± 1.73 h, a half-life [1, 4] of 21.2 ± 7.11 h and an MRT last ([1]; male, C57BL/6, mouse, ip, mice, 40 mg/kg intraperitoneal injection, plasma, read-out: MRT0-t) of 59.2 ± 2.75 h. The MRT inf ([1]; male, C57BL/6, mouse, ip, mice, 40 mg/kg intraperitoneal injection, plasma, read-out: MRT0-∞) was 61.4 ± 3.7 h, the Cmax ([1]; male, C57BL/6, mouse, plasma, ip, mice, 40 mg/kg i.p.) was 4520 ± 1630 ng/mL and the Cmax ([1]; male, C57BL/6, mouse, plasma, ip, mice, 40 mg/kg intraperitoneal injection) was 4530 ng/mL. The “expansions of three myeloid cells subsets in the blood” value [2] was “more robust suppressive effect” and the “apoptosis of A549 cells” value [3] was “induced the apoptosis”.
